From BindingDB's records for doi:10.1016/s0022-2836(03)00399-1 (Celera, 2003)

Key:
Assay in all cases: Enzyme Assay and Determination of the Inhibition Constants
Coagulation factor X = Coagulation factor X (Homo sapiens, UniProt P00742)
Description: (§1) Each enzyme was assayed with a set of different concentrations of each inhibitor. […] Ki(apparent) values were calculated from enzyme velocity curves using the software package BatchKi (BioKin Ltd, Madison, WI). These apparent inhibition constants were then converted to Ki values by assuming competitive inhibition and using the formula Ki = Ki(apparent)/(1 + S/Km).

Prothrombin = Prothrombin (Homo sapiens, UniProt P00734)
Description: as §1

Serine protease 1 [1] = molecular target: T1, Serine protease 1 (Bos taurus, UniProt P00760)
T1 sequence (P00760 whole entry): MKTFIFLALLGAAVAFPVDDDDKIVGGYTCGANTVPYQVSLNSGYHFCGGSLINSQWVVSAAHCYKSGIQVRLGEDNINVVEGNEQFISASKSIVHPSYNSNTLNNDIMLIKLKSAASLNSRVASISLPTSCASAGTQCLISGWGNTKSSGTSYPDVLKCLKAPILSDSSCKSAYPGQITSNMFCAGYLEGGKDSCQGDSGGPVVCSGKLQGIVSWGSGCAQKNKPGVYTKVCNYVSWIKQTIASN
Description: as §1

[2] = molecular target: Urokinase-type plasminogen activator (Homo sapiens, UniProt P00749)
Description: as §1

Serine protease 1 [3] = molecular target: Serine protease 1 (Homo sapiens, UniProt P07477)
Chain of Serine protease 1 (Homo sapiens, UniProt P07477) (P07477 whole entry): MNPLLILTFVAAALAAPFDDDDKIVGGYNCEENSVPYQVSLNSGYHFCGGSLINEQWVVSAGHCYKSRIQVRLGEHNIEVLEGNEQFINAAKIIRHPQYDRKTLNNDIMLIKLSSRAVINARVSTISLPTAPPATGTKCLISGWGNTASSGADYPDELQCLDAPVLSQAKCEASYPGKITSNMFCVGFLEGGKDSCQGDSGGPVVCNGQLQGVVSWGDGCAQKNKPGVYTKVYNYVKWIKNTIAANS
Description: as §1

Chain of Coagulation factor X (P00742 41-179 limits assumed): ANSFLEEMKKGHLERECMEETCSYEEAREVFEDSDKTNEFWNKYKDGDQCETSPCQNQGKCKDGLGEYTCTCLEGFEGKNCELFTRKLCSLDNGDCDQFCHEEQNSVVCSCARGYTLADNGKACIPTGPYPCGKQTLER
Chain of Coagulation factor X (P00742 235-488 limits assumed): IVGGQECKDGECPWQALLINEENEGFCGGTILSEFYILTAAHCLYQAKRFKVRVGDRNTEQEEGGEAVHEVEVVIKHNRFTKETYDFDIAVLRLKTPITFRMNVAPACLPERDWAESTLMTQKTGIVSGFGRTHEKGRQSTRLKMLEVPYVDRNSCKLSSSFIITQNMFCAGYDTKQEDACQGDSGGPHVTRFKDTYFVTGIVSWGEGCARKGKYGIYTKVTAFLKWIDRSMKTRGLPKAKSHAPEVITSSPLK

Structure (SMILES)	Ki (Coagulation factor X) [µM]	Ki (Prothrombin) [µM]	Ki [2] [µM]	Ki (Serine protease 1 [1]) [µM]	Ki (Serine protease 1 [3]) [µM]	further results
N=C(N)c1ccc2nc(-c3cc([N+](=O)[O-])ccc3O)[nH]c2c1 [2-{5-[amino(iminiumyl)methyl]-1H-1,3-benzodiazol-2-yl}-4-nitrobenzen-1-olate]	7.3	23	5.1			Ki (Serine protease 1 [1]; pH 6.1, 22 °C): 0.47 µM
N=C(N)c1ccc2[nH]c(-c3cc(Cl)cc(-c4ccccc4)c3O)cc2c1 [2-{5-[amino(iminiumyl)methyl]-1H-indol-2-yl}-4-chloro-6-phenylbenzen-1-olate]	0.25	1	0.59	0.013	0.54	
Cc1cc(-c2ccccc2)c(O)c(-c2cc3cc(C(=N)N)ccc3[nH]2)c1 [2-{5-[amino(iminiumyl)methyl]-1H-indol-2-yl}-4-methyl-6-phenylbenzen-1-olate]	0.18		0.34		0.38	Ki (Serine protease 1 [1]; pH 7.6, 22 °C): 0.015 µM
N=C(N)c1ccc2[nH]c(-c3cc([N+](=O)[O-])cc(-c4ccccc4)c3O)cc2c1 [2-{5-[amino(iminiumyl)methyl]-1H-indol-2-yl}-4-nitro-6-phenylbenzen-1-olate]	0.013			0.0013	0.08	
N=C(N)c1ccc2[nH]c(-c3ccccc3O)cc2c1 [2-{5-[amino(iminiumyl)methyl]-1H-indol-2-yl}benzen-1-olate]	2.4	12	2.9		4.9	Ki (Serine protease 1 [1]; pH 8.04, 22 °C): 0.6 µM
N=C(N)c1cc2nc(-c3cccc(-c4ccccc4)c3O)[nH]c2cc1F [2-{5-[amino(iminiumyl)methyl]-6-fluoro-1H-1,3-benzodiazol-2-yl}-6-phenylbenzen-1-olate]			0.28		12	Ki (Serine protease 1 [1]; pH 7.5, 22 °C): 0.23 µM
N=C(N)c1ccc2nc(-c3cc([C@@H](CC(=O)O)C(=O)O)cc(-c4ccccc4)c3O)[nH]c2c1 [(2R)-2-(3-{5-[amino(iminiumyl)methyl]-1H-1,3-benzodiazol-2-yl}-4-oxido-5-phenylphenyl)butanedioate]	1.2	160	0.12	0.29	3.7	
N=C(N)c1ccc2nc(-c3cc([C@@H](CC(=O)O)C(=O)O)ccc3O)[nH]c2c1 [(2R)-2-(3-{5-[amino(iminiumyl)methyl]-1H-1,3-benzodiazol-2-yl}-4-oxidophenyl)butanedioate]	10	> 75		10	4.4	
N=C(N)c1ccc2nc(-c3cc([C@@H](CC(=O)O)C(=O)O)cc(-c4ccccc4N)c3O)[nH]c2c1 [(2R)-2-(3-{5-[amino(iminiumyl)methyl]-1H-1,3-benzodiazol-2-yl}-5-(2-aminophenyl)-4-oxidophenyl)butanedioate]	3.8	> 75		1.1	8.5	
N=C(N)c1ccc2nc(-c3cc([C@@H](CC(=O)O)C(=O)O)cc(-c4ccccc4F)c3O)[nH]c2c1 [(2R)-2-(3-{5-[amino(iminiumyl)methyl]-1H-1,3-benzodiazol-2-yl}-5-(2-fluorophenyl)-4-oxidophenyl)butanedioate]	1.2	70	0.085		2.9	
N=C(N)c1ccc2nc(-c3cc([C@@H](CC(=O)O)C(=O)O)cc(Br)c3O)[nH]c2c1 [(2R)-2-(3-{5-[amino(iminiumyl)methyl]-1H-1,3-benzodiazol-2-yl}-5-bromo-4-oxidophenyl)butanedioate]	0.7	40	0.75		7.5	
N=C(N)c1ccc2[nH]c(-c3cc([C@@H](CC(=O)O)C(=O)O)cc(Br)c3O)cc2c1 [(2R)-2-(3-{5-[amino(iminiumyl)methyl]-1H-indol-2-yl}-5-bromo-4-oxidophenyl)butanedioate]	0.048	1.7		0.24	1.7	
N=C(N)c1ccc2nc(-c3cccc(OC4CCCC4)c3O)[nH]c2c1 [CA-06]						Ki (Serine protease 1 [1]; pH 7.67, 22 °C): 0.052 µM
N=C(N)c1cc2cc(-c3cccc(-c4ccccc4)c3O)[nH]c2cc1F [CA-12]		6.3		0.19	0.66	
COc1ccc(O)c(-c2nc3ccc(C(=N)N)cc3[nH]2)c1 [{amino[2-(2-hydroxy-5-methoxyphenyl)-1H-1,3-benzodiazol-5-yl]methylidene}azanium]	8					Ki (Serine protease 1 [1]; pH 7.72, 22 °C): 1.2 µM
